Tests used:
[1] = Case report Example 5: blood pressure in diabetic hypertensive; assay type: in vivo, human; conditions: lisinopril 20 mg twice a day, over 3 days; before 188/92
Experimental: The patient with diabetes requiring insulin therapy also has a long history of elevated blood pressure. The blood pressure was previously controlled using lisinopril 20 mg. daily. […] The dose of lisinopril was lowered to 20 mg once a day.

[2] = intravenous administration; cited from earlier work

SMILES	blood pressure [1]	blood flow in peripheral vascular disease [2]
NCCCC[C@H](N[C@@H](CCc1ccccc1)C(=O)O)C(=O)N1CCC[C@H]1C(=O)O [lisinopril]	145/92	
N[C@@H](CCC(=O)N[C@@H](CS)C(=O)NCC(=O)O)C(=O)O [reduced glutathione, gamma-glutamyl-cysteinyl-glycine]		benefit in improving blood flow
